The source of these data is PubChem BioAssay (NCI).

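Where inhibition never reached the appropriate level, the endpoint shown equals the highest concentration tested. Otherwise, values were interpolated linearly from a five-concentration, 48-hour dose response in 96-well plates. The concentration for 50% growth inhibition is given as GI50. TGI: total growth inhibition.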 Where only a bound is given, the exact number is not on record here.

Test systems include HOP-18 NSCLC; KM20L2 colon; LXFL 529 NSCLC; RXF-631 renal; SNB-78 CNS; DU-145 prostate; MDA-N; P388 leukemia; P388/ADR leukemia; PC-3 prostate; SN12K1 renal; T-47D breast.
What all share (experiment): NCI tumour cell line growth inhibition, 48 h

Regarding `COc1ccc(CCN=C2CCC(C(=O)NCCc3ccc(OC)c(OC)c3)N2)cc1OC` (configuration not stated), the TGI with HOP-18 NSCLC, in the assay on KM20L2 colon, with LXFL 529 NSCLC, in the assay on RXF-631 renal and in the assay on SNB-78 CNS was over 100 µM throughout.
For `CC(=O)C1C(=O)N(C(C)C)C[C@@H]2CCC(=O)C[C@H]12` (some centres not stated), the TGI in the assay on LXFL 529 NSCLC, in the assay on RXF-631 renal and in the assay on SNB-78 CNS was over 100 µM each time.
As for `C/C(CC(=O)N(C(C)C)C(C)C)=N\NC(=O)c1ccncc1`, the TGI in the assay with HOP-18 NSCLC, in the assay on KM20L2 colon, with LXFL 529 NSCLC, with RXF-631 renal and in the assay with SNB-78 CNS was over 100 µM in each case.
Turning to `O=C1c2ccccc2C(=O)c2nc3ccc(Cl)cc3cc21`, the TGI with KM20L2 colon, in the assay with LXFL 529 NSCLC, with RXF-631 renal and with SNB-78 CNS was over 100 µM in each case.
Consider `COc1ccc2nc3ccccc3c(NCCCCN(C)CCCl)c2c1`, for which the TGI with KM20L2 colon turned out to be 0.478 µM; with LXFL 529 NSCLC it was 0.189 µM; in the assay on RXF-631 renal it was 0.367 µM; in the assay on SNB-78 CNS it was 0.674 µM.
Take `CN1CCc2c1nc(-c1ccc([N+](=O)[O-])cc1)c1c2N(C)CC1`: the TGI with HOP-18 NSCLC, in the assay on KM20L2 colon, with LXFL 529 NSCLC, with RXF-631 renal and in the assay with SNB-78 CNS was over 100 µM throughout.
As for `CC1CC[C@]2(C(=O)O)CCC3(C)C(=CCC4[C@@]5(C)CC[C@H](OS(=O)(=O)c6ccccc6)C(C)(C)C5CC[C@]43C)[C@@H]2[C@H]1C` (some centres not stated), the TGI with HOP-18 NSCLC, in the assay with LXFL 529 NSCLC, in the assay with RXF-631 renal and in the assay with SNB-78 CNS was over 100 µM throughout.
Take `Cc1ccc(NC(=O)CC(=O)N2N=C(N(CCC#N)c3cccc(C)c3)CC2c2ccccc2)cc1` (configuration not stated): the TGI in the assay on HOP-18 NSCLC, with KM20L2 colon, with LXFL 529 NSCLC and in the assay with SNB-78 CNS was over 100 µM in each case.
With `COc1ccc(C2CCc3cc4c(cc3/C2=N/OC(C)=O)OCO4)cc1OC` (configuration not stated), the TGI was over 100 µM with HOP-18 NSCLC; 72.3 µM with KM20L2 colon; over 100 µM in the assay on LXFL 529 NSCLC; over 100 µM in the assay on RXF-631 renal; over 100 µM in the assay with SNB-78 CNS.
For the molecule `Nc1ccc(S(=O)(=O)Nc2cnc3c(Cl)cccc3n2)cc1`, the TGI was over 750 µM in the assay on DU-145 prostate; over 750 µM with HOP-18 NSCLC; over 750 µM with KM20L2 colon; over 566 µM in the assay on MDA-N; over 750 µM in the assay with P388 leukemia; over 750 µM in the assay on P388/ADR leukemia. Besides, the TGI is over 750 µM in the assay on PC-3 prostate, 472 µM with SN12K1 renal, 528 µM in the assay on SNB-78 CNS and over 750 µM in the assay on T-47D breast. The GI50 with MDA-N was over 66.9 µM; in the assay on PC-3 prostate, over 63.9 µM; in the assay on T-47D breast, 48.2 µM.
Turning to `COc1cc2cc3c4c(cc(OC)c(OC)c4c2cc1OC)CCN3C(=O)CCC(=O)NCCCN(C)C`, the TGI with HOP-18 NSCLC is over 100 µM; in the assay with KM20L2 colon, 67 µM; with LXFL 529 NSCLC, over 100 µM; in the assay with SNB-78 CNS it was over 100 µM.
Regarding `Cc1cc(Cl)cc2c1NC(=O)C2=O` (tested in a mixture with another compound), the TGI in the assay on HOP-18 NSCLC is over 100 µM; in the assay with KM20L2 colon, over 100 µM; in the assay with LXFL 529 NSCLC it was over 100 µM; in the assay with SNB-78 CNS it was 91.1 µM.
For `C[C@@H]1C[C@]2(C[C@@H](C)C3[C@@H](CC4(C)[C@@H]5CCC6C(C)(C)OC(=O)C=C[C@]67C[C@@]5(CC[C@]34C)OO7)O2)OC1=O` (some centres not stated), the TGI with HOP-18 NSCLC, in the assay with LXFL 529 NSCLC and in the assay with SNB-78 CNS was over 100 µM each time.
Consider `COc1ccccc1NC(=O)C(CC(C(=O)Nc1ccccc1OC)/C(C)=N/Nc1ccc([N+](=O)[O-])cc1[N+](=O)[O-])/C(C)=N/Nc1ccc([N+](=O)[O-])cc1[N+](=O)[O-]` (configuration not stated), for which the TGI with HOP-18 NSCLC, in the assay with KM20L2 colon, in the assay with LXFL 529 NSCLC, in the assay on RXF-631 renal and with SNB-78 CNS was over 100 µM in each case.
`O=C(c1ccc(Cl)cc1)C1OC12C(=O)Nc1ccccc12` (configuration not stated): the TGI in the assay on DU-145 prostate amounted to 33.8 µM; in the assay on HOP-18 NSCLC, 27 µM; in the assay on KM20L2 colon, 41.3 µM; in the assay on LXFL 529 NSCLC, 11.8 µM; with MDA-N, 14.5 µM; with PC-3 prostate, 41 µM. Further, the TGI was 34.7 µM with RXF-631 renal, 32.4 µM in the assay on SNB-78 CNS and 47.7 µM with T-47D breast.
`COC(=O)CC(C(C(C)=O)C(=O)OCc1ccccc1)N1C(=O)OCC1c1ccccc1` (configuration not stated): the TGI in the assay with KM20L2 colon, in the assay with LXFL 529 NSCLC and with RXF-631 renal was over 100 µM in each case.
Consider `COc1nc(NC2OC(COC(C)=O)C(OC(C)=O)C(OC(C)=O)C2OC(C)=O)c(-c2csc(N)n2)c(=O)n1C` (configuration not stated), for which the TGI with HOP-18 NSCLC, in the assay on KM20L2 colon, with LXFL 529 NSCLC and with SNB-78 CNS was over 100 µM in each case.
In the case of `CCCCCCCCCCCCCc1nn[nH]n1`, the TGI came out at 28.2 µM in the assay on HOP-18 NSCLC; 37.4 µM in the assay on KM20L2 colon; 31.2 µM in the assay with LXFL 529 NSCLC; 29.3 µM in the assay on RXF-631 renal; 43.6 µM in the assay on SNB-78 CNS.
Take `CCOc1ccc(C(CN2CCOCC2)C(C)=O)cc1OC` (configuration not stated): the TGI with HOP-18 NSCLC worked out at 30.2 µM; in the assay with KM20L2 colon, 35 µM; in the assay with LXFL 529 NSCLC, 17 µM; in the assay on SNB-78 CNS, 66.8 µM.
In the case of `CN(C=O)/C=C/c1cc(O)ccc1O`, the TGI with DU-145 prostate is over 100 µM; in the assay on HOP-18 NSCLC, 31.4 µM; in the assay on KM20L2 colon it was over 62.4 µM; in the assay on LXFL 529 NSCLC, 33.6 µM; in the assay with RXF-631 renal it was over 100 µM; in the assay with SNB-78 CNS it was 56.2 µM.
As to `CCCCCCCCCCCCCCCCOC(=O)c1cc(O)cc(C(=O)OCCCCCCCCCCCCCCCC)c1`, the TGI with HOP-18 NSCLC, in the assay on KM20L2 colon, in the assay with LXFL 529 NSCLC, in the assay with RXF-631 renal and with SNB-78 CNS was over 100 µM throughout.
For the molecule `S=c1nc(-c2ccnc(-c3nc(=S)[nH][nH]3)c2)[nH][nH]1`, the TGI in the assay with HOP-18 NSCLC, in the assay with KM20L2 colon, in the assay with LXFL 529 NSCLC and in the assay on SNB-78 CNS was over 100 µM in each case.
For `COc1ccc(CCc2cc(OC)c(OC)c(OC)c2)cc1`, the TGI in the assay on DU-145 prostate is 5.62 µM; with HOP-18 NSCLC, over 100 µM; in the assay with KM20L2 colon, 0.049 µM; with LXFL 529 NSCLC, 21 µM; in the assay with MDA-N, 0.021 µM; in the assay on PC-3 prostate, over 62.6 µM. Moreover, the results for the TGI with RXF-631 renal and with SNB-78 CNS were 4.45 µM and 0.0976 µM, respectively.
For `C[N+](C)(C)CC1CCCC(C[N+](C)(C)C)C1O` (configuration not stated), the TGI in the assay with HOP-18 NSCLC, with KM20L2 colon, with LXFL 529 NSCLC, in the assay on RXF-631 renal and with SNB-78 CNS was over 100 µM in each case.
As to `O=c1cc(-c2ccccn2)[nH]c2ccc(Cl)cc12`, the TGI in the assay with HOP-18 NSCLC, with KM20L2 colon, with LXFL 529 NSCLC and in the assay on SNB-78 CNS was over 100 µM in each case. Also, in the assay on KM20L2 colon, the GI50 is 40 µM.
Turning to `COc1cccc(NC(=O)C(=O)C(C(C)=O)c2nc3ccc(Cl)cc3[nH]c2=O)c1` (configuration not stated), the TGI in the assay with HOP-18 NSCLC, in the assay on KM20L2 colon, in the assay on LXFL 529 NSCLC, in the assay on RXF-631 renal and in the assay with SNB-78 CNS was over 100 µM in each case.
`O=C(Nc1cccc(NC(=O)c2cc(=O)c3ccccc3o2)n1)c1cc(=O)c2ccccc2o1`: the TGI in the assay on KM20L2 colon, with LXFL 529 NSCLC, in the assay on RXF-631 renal and in the assay on SNB-78 CNS was over 100 µM in each case.
In the case of `COc1cc2c(c(OC)c1OC)-c1ccc(SC)c(=O)cc1[C@@H](NC(=O)c1ccc(Cl)cc1)CC2`, the values for the TGI in the assay with KM20L2 colon, in the assay with LXFL 529 NSCLC and in the assay on RXF-631 renal were under 0.01 µM, 0.169 µM and over 100 µM, respectively.
For the molecule `CNC(=O)CN(CC(N)=O)C(N)=O`, the TGI with KM20L2 colon, in the assay with LXFL 529 NSCLC, in the assay on RXF-631 renal and with SNB-78 CNS was over 100 µM in each case.
In the case of `CCSC(SCC)=C1C(=O)N(c2ccccc2)N=C1C`, the TGI in the assay on HOP-18 NSCLC was found to be 29.4 µM; in the assay on KM20L2 colon, 30.5 µM; with LXFL 529 NSCLC it was 22.6 µM; in the assay on SNB-78 CNS it was 46.3 µM.
In the case of `CCOC(=O)[C@H]1Nc2ccccc2C2c3ccccc3CC21` (some centres not stated), the TGI with KM20L2 colon, in the assay on LXFL 529 NSCLC, with RXF-631 renal and in the assay with SNB-78 CNS was over 100 µM each time.
Consider `N[C@@H]1CCCC[C@@H]1N.O=P([O-])([O-])CN(CP(=O)([O-])[O-])CP(=O)([O-])[O-].[Pt+2]`, for which the GI50 in the assay on HOP-18 NSCLC, in the assay on KM20L2 colon, with LXFL 529 NSCLC and in the assay on SNB-78 CNS was over 100 µM throughout. For the same molecule, the TGI in the assay on HOP-18 NSCLC, in the assay on KM20L2 colon, in the assay with LXFL 529 NSCLC and in the assay on SNB-78 CNS was over 100 µM throughout.
In the case of `O=S(=O)(c1ccc(O)c(C=Nc2ccc(Cl)cc2)c1)c1ccc(O)c(C=Nc2ccc(Cl)cc2)c1`, the TGI in the assay with HOP-18 NSCLC, with KM20L2 colon, in the assay with LXFL 529 NSCLC and in the assay on RXF-631 renal was over 100 µM each time.
